# Measured values taken from PubChem BioAssay (NCI).
#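 Following 48 hours of exposure in 96-well plates, responses at five concentrations were used to interpolate endpoints linearly. At the GI50, growth is halved. TGI marks complete inhibition of growth.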
# Assays:
# Test in all cases: inhibition of tumour cell growth, NCI panel, 48 h
# [1] = tested on: SW-620 colon
# [2] = tested on: CAKI-1 renal
# [3] = tested on: SF-268 CNS
# [4] = tested on: U251 CNS
# [5] = tested on: DLD-1 colon
# [6] = tested on: HCT-116 colon
# [7] = tested on: HT29 colon
# [8] = tested on: MOLT-4 leukemia
# [9] = tested on: UACC-257 melanoma
# [10] = tested on: HL-60(TB) leukemia
Structure (SMILES),TGI [1] [µM],TGI [2] [µM],TGI [3] [µM],TGI [4] [µM],TGI [5] [µM],TGI [6] [µM],TGI [7] [µM],TGI [8] [µM],TGI [9] [µM],GI50 [1] [nM],GI50 [2] [nM],GI50 [3] [nM],GI50 [4] [µM],GI50 [10] [nM],TGI [10] [µM],GI50 [6] [nM],GI50 [7] [nM],GI50 [8] [nM],GI50 [9] [µM]
c1ccc(SC23C4C5C6C4C2C6C53)nc1 (centres undefined),> 100,> 100,> 31.6,> 100,> 100,> 100,> 100,> 100,> 100,,,,,,,,,,
CC(=O)/C=C/C1=C(c2csc3ccccc23)c2ccccc2CC1,> 100,> 100,> 100,> 100,,95,> 100,> 100,53.9,28000,32400,31800,31.1,13600,58.3,6160,21300,15600,20.8
COc1cc(OC)c(OC)cc1/C=C/c1cnnc2ccccc12,> 10,> 10,> 10,> 10,,> 10,> 10,> 10,> 10,,,,,,> 10,,,,
Cc1ccc2c(c1)C(=O)c1c-2c(OCCCN(C)C)nc2ccccc12,2.02,18.2,12.9,14.8,,2.12,3.33,4.57,5.82,587,4100,2300,4.13,2310,19.6,718,710,427,3.06
C[C@H]1CNC(=O)c2cnn3ccc(nc23)N[C@H](C)c2cc(F)ccc2O1,> 55.1,1.59,3.79,> 100,,16.9,,42.2,> 94,517,343,809,3.36,4660,> 62.5,559,457,1960,6.45
COc1ccc(/C=C2\SC(=Nc3ccccc3)NC2=O)cc1,24.4,> 100,88.3,16.3,,12.9,19.5,> 100,> 100,3380,3980,8180,3.98,3530,> 100,3400,4380,4770,52.2
Cc1ccc(NC(=O)/C(Cc2cc(=O)oc3cc(O)ccc23)=N\NC(C)(C)C)cc1C,> 100,> 100,> 100,> 100,,> 100,> 100,> 100,> 100,,,,,,> 100,,,,
CC([C@H]1CC=C2C3CCC4=C[C@@H](N(C)C)CC[C@]4(C)C3CC[C@@]21C)N(C)C (some centres undefined),8.24,10.3,4.71,15.4,,2.76,2.11,5.31,19.4,2490,2490,1980,3.21,1260,3.66,1070,455,1970,6.1
CN(C)CCCC1(c2ccc(F)cc2)OCc2cc(-c3cc4ccccc4s3)ccc21 (centres undefined),3.4,2.59,3.29,3.02,,3.22,3.11,3.08,3.27,1740,1290,1650,1.63,1760,3.39,1670,1670,1520,1.8
COc1ccc2c(c1OC)C(C(Cl)(Cl)Cl)N1CCc3cc4c(cc3C1=C2)OCO4 (centres undefined),> 100,> 100,91.1,43.1,,27.9,68.4,80.9,62.9,,,,,,45.2,,,,
Cn1c(-c2ccccc2)c(/C=C/C2=[N+](C)c3ccccc3C2(C)C)c2ccccc21,12.5,5.08,12.9,12.8,,7.11,7.59,4.06,2.53,1520,1810,1320,0.46,254,0.565,593,711,1060,0.405
COC(=O)C(=O)C(C(=O)C(=O)Nc1ccccc1OC)c1nc2ccc([N+](=O)[O-])cc2[nH]c1=O (centres undefined),> 100,> 100,> 100,> 100,,> 100,> 100,> 100,> 100,,,,,,> 100,,,,
CCCCCC[C@@H](C)NC(=O)c1ccc(Nc2nc3ccccc3c3occc23)cc1,> 100,28.3,> 100,> 100,,11.3,> 100,> 100,5.66,3380,2820,5730,38.8,5140,> 100,1920,2810,3710,2.19
C[n+]1c2ccccc2nc2ccccc21,3.26,6.42,7.78,3.09,,2.89,12,> 23.5,5.01,1370,2090,2520,1.44,1740,> 16.1,820,1760,4190,1.8
NC(N)=NC(N)=NCCCc1ccco1,125,247,156,> 500,,335,> 500,176,101,18200,92400,61500,150,15900,48.2,90200,> 500000,28300,19.2
